Results taken from US11738042B2, “Compositions and methods for promoting bone regeneration” (The Penn State Research Foundation, priority 2018, dated 2023).

Tests used:
Assay type in all cases: cell-based, human
hMSCs [1] = experiment: Protein synthesis assay in undifferentiated hMSCs; settings: for citrate-mediated protein synthesis in presence of inhibitor: GM, with citrate
Protocol: Upon 24 and 96 hours incubation, protein synthesis was measured by labeling the intracellular translating proteins with clickable probes (Protein Synthesis Assay kit, Cayman Chemical, Ann Arbor, Mich.).

hMSCs [2] = experiment: ALP production / osteogenic markers of hMSCs with soluble citrate, PSer or inhibitor (PNPP assay, western blot)
From the text: (§1) hMSCs with passage ≤6 were used in the present differentiation study. […] For osteo-phenotype progression assessment, cells were lysed, and alkaline phosphatase (ALP) production was quantified by using p-nitrophenyl phosphate (PNPP) as its substrate. Alizarin Red was used to stain the calcium nodules formed by the differentiating cells, and the calcium content in the nodules was quantified by Calcium Assay Kit (Sigma-Aldrich, St. Louis, Mo.) and normalized to protein amount as determined by BCA protein assay kit (Thermo Scientific™, Waltham, Mass.). Expression of osteogenic master transcription factor Runx2 was examined by real-time PCR and by using a Runx2 ELISA kit (American Research Products, Inc.™, Waltham, Mass.) according to manufacturer's instructions. Moreover, the expression of bone matrix proteins Collagen type I and osteopontin (OPN) were evaluated with real-time PCR, while OPN expression were also observed by immunofluorescent staining. Western blot was performed to evaluate the expression of ALP, OPN and SLC13a5 before or after differentiating for predetermined time periods.
For ALP expression analysis, cell samples were lysed using RIPA buffer, and the cell lysate was centrifuged to remove debris. Then ALP activity measurement was performed by utilizing p-nitrophenyl phosphate (PNPP) which is hydrolyzed by ALP into a yellow colored product. Briefly, the PNPP stock solution (IM) was diluted with ALP assay buffer at a ratio of 1:100, 50 μL of which was subsequently added to 50 μL of lysate sample. After 10-30 min of incubation at 37° C., the plates were measured at 405 nm on a plate reader (TECAN, Männedorf, Switzerland). The same cell lysate solutions were used to determine DNA amount via a PicoGreen dsDNA quantification kit (Invitrogen, Carlsbad, Calif.) according to the manufacturer's instructions.
After protein quantification by BCA assay, gel electrophoresis was carried out on AnykD™ Mini-Protean TGX stain-free Protein gels at 50 V for 10 min, followed by 250 V for 10-20 min, and was transferred to PVDF membranes with the Trans-Blot Turbo™ system. […]

hMSCs [3] = experiment: Intracellular ATP determination in hMSCs
hMSCs [4] = experiment: Oxygen consumption rate (OCR) study in hMSCs
hMSCs [5] = experiment: hMSC proliferation with citrate (CCK-8); settings: citrate 0 to 2000 μM, pH 7.4, in growth medium (GM)
From the text: as §1
Human mesenchymal stem cells (hMSCs; Lonza) were cultured in low glucose Dulbecco's Modified Eagle Medium (DMEM) with 10 vol. % fetal bovine serum (FBS) (Atlanta Biologicals; Flowery Branch, Ga.) and GlutaMAX (Gibco Laboratories, Gaithersburg, Md.). […]

hMSCs [6] = experiment: Alizarin Red staining and calcium quantification of hMSCs; settings: citrate in growth medium (GM)
Protocol: hMSCs with passage ≤6 were used in the present differentiation study. […] Alizarin Red was used to stain the calcium nodules formed by the differentiating cells, and the calcium content in the nodules was quantified by Calcium Assay Kit (Sigma-Aldrich, St. Louis, Mo.) and normalized to protein amount as determined by BCA protein assay kit (Thermo Scientific™, Waltham, Mass.).
For Alizarin Red staining, cell samples were fixed with 4% paraformaldehyde, and 40 mM Alizarin red solutions were used to stain calcium nodules for 30 min with gentle shaking. After thoroughly washing, the stained cells were observed on a Microscope (Nikon, Tokyo, Japan). For calcium quantification, cell samples were washed with PBS and decalcified in 0.6 N HCl for 12 h with gentle shaking. Calcium content in the supernatants was determined colorimetrically by using the Calcium assay kit (Sigma-Aldrich, St. Louis, Mo.), while protein content in cell lysate solutions (lysed with RIPA buffer) was determined using the Pierce BCA protein assay kit (Thermo Scientific™, Waltham, Mass.) according to manufacturer's instructions.

hMSCs [7] = experiment: Real-time PCR of osteogenic genes in differentiating hMSCs; settings: 200 μM citrate vs OG control, 7 and 14 days
From the text: as §1
Total RNA from whole cells was isolated with QIAGEN RNeasy kit (Hilden, Germany) and was transcribed into cDNA using High-Capacity cDNA Reverse Transcription Kits (Applied Biosystems™, Foster City, Calif.). For quantitative analysis, real-time PCR was performed using cDNA as the template, together with TaqMan Gene Expression Master Mix and the TaqMan Gene Expression Assays with both primers and probe included (Applied Biosystems™, Foster City, Calif.), and using the ABI 7900HT Fast Real-Time PCR system (Applied Biosystems™, Foster City, Calif.) according to manufacturer's instructions. Human PPIA (Cyclophilin A) was used for normalization. The primers and TaqMan probe for human Runx2, CoL1A1, SPP1 and PPIA were Hs00231692_ml, Hs00164004_ml, Hs00959010_ml, and Hs99999904_ml, respectively.

hMSCs [8] = experiment: Runx2 ELISA in hMSCs; settings: citrate treatment in OG, as early as day 4
From the text: as §1

hMSCs [9] = experiment: Citrate assay, intracellular citrate in hMSCs; settings: 24 h incubation with citrate supplemented medium
hMSCs [10] = experiment: Extracellular acidification rate (ECAR) / glycolysis and lactate production in hMSCs; settings: undifferentiated hMSCs, 24 h citrate treatment in GM
[11] = differentiating hMSCs in OG, vs OG medium control
[12] = undifferentiated hMSCs, 24 h citrate treatment in GM

C[C@@H]1C[C@@H]([C@H](O)CC2CC(=O)NC(=O)C2)C(=O)[C@@H](C)C1 [Cycloheximide]
citrate-mediated protein synthesis in presence of inhibitor (hMSCs [1]): abolished this activity

COc1ncc(C)cc1CC[C@@](O)(CC(=O)O)C(=O)O [PF06761281, reference compound]
citrate-induced elevation of ALP production with SLC13a5 inhibitor (hMSCs [2]; 14 days in OG, citrate plus inhibitor): negated the citrate-induced elevation of ALP production | citrate effect on metabolic flux to elevate intracellular ATP levels, with SLC13a5 inhibitor (hMSCs [3]; undifferentiated hMSCs, citrate plus inhibitor): could be abolished | citrate-increased mitochondrial respiration with SLC13a5 inhibitor (hMSCs [4]; hMSCs differentiated for 14 days, 1 day treatment in OG): likewise abolished

N[C@@H](COP(=O)(O)O)C(=O)O [PSer, Phosphoserine]
citrate-promoted osteo-phenotype progression (ALP production) (hMSCs [2]; 40 μM PSer with citrate in OG, 21 days): substantially enhanced | ALP production (hMSCs [2]; higher PSer dosages (up to 1000 μM) with citrate in OG, 21 days): further elevation of ALP production | intracellular ATP (hMSCs [3]; [11]): showed no difference from the OG medium control | intracellular ATP levels (hMSCs [3]; undifferentiated hMSCs, addition of PSer with or without citrate treatment): no significant effect

CCC(=O)N1CCN(c2ccc(-n3c(=O)ccc4cnc5ccc(-c6cnc7ccccc7c6)cc5c43)cc2C(F)(F)F)CC1 [Torin1]
citrate-mediated protein synthesis in presence of inhibitor (hMSCs [1]): abolished this activity

O=C(O)CC(O)(CC(=O)O)C(=O)O [citrate]
hMSCs proliferation (hMSCs [5]): little increase | calcium deposition by Alizarin Red staining (hMSCs [6]): absence of calcium deposition | expression of Col1a1 (real-time PCR) (hMSCs [7]): remarkably elevated expression | expression of Runx2 (real-time PCR) (hMSCs [7]): remarkably elevated expression | expression of SPP1 (real-time PCR) (hMSCs [7]): remarkably elevated expression | Runx2 protein (ELISA) (hMSCs [8]): favorable accumulation | protein synthesis (hMSCs [1]; 200 μM citrate in GM, 24 h and 96 h, vs control without citrate): increased significantly | intracellular citrate (hMSCs [9]): marked increase | intracellular ATP (hMSCs [3]; [11]): showed no difference from the OG medium control | intracellular ATP (hMSCs [3]; hMSCs differentiated for 14 days, citrate in OG for 1 or 4 days): significant effects on intracellular ATP only after 4 days of treatment | intracellular ATP levels (hMSCs [3]; [12]): elevated intracellular ATP levels | mitochondrial respiration (OCR) (hMSCs [4]; hMSCs differentiated for 14 days, 1 day citrate treatment in OG): markedly increased | oxygen consumption rate (OCR) (hMSCs [4]; [12]): increased oxygen consumption rate | glycolytic flux (ECAR) (hMSCs [10]): decrease in glycolytic flux | production of lactate (hMSCs [10]): reduced production of lactate
